Test results published in patent US7648961B2, “Use of somatostatin or one of its analogues for preparing a medicament intended to regulate the ovarian follicular reserve in non-menopausal women” (Preglem S.A., priority 2003, dated 2010).
Where a SMILES comes first, the peptide text is derived from it. [ ]: non-standard residue; d: D form. Tic = O=C(O)[C@@H]1Cc2ccccc2CN1; Abu = CC[C@H](N)C(=O)O

Tests used:
ovarian follicles = assay: Envisaged typical clinical situations of use in patients; assay type: in vivo, human; conditions: patient with polycystic ovary syndrome, 120 mg/month, 4th month of treatment, envisaged situation
From the text: The following typical situations for a use according to the invention could however be envisaged: • A patient of approximately 20 to 25 years of age (for example) has a partial Turner syndrome through X chromosome microdeletion. Their ovarian function is apparently normal with regular ovulatory cycles. Their FSH serum level is slightly higher during the luteal-follicular transition period (for example FSH=approximately 9.2 IU/litre). […] Considering the high risk that they will have early menopause, the patient is treated with lanreotide acetate at a dose of 120 mg/months (Somatuline® Autogel® 120 mg, Beaufour Ipsen Pharma, France). The treatment is discontinued after several years when the patient wishes to conceive. • A patient of approximately 35 to 40 years of age has had primary sterility for several years. Assessment of the couple produced a diagnosis of sterility of tubal origin, very probably resulting from a history of peritonitis. The menstrual cycles are ovulatory and the FSH serum level is slightly higher during the luteal-follicular transition period (for example FSH=approximately 11.4 IU/L). […] A diagnosis of reduction of the ovarian reserve is made. […] During this treatment, the number of antral follicles present in each ovary is assessed by ultrasound at the start of each menstrual cycle. […]

[1] = test system: primordial follicles of ovarian cortex; assay: Culture of ewe ovarian cortex fragments for 10 days: start of growth of primordial follicles; assay type: cell-based; conditions: for start of growth of the primordial follicles: ewe ovarian cortex, 10 days of culture, versus control fragments
Experimental: Ovaries of adult ewes are collected immediately after slaughter. The ovaries are placed in an organ transport medium without serum (X-vivo, Bio Whittaker, Walkersville, Md., USA) at 10° C. and transported to the laboratory. Approximately 1 h after removal, the cortex is isolated from the medulla then fractionated into slices of 2 mm thickness (1 cm^2, average weight of 212 mg) after rinsing in new X-vivo. The cortex fragments are cultured in an oven under 5% oxygen for 10 days in well plates in the presence of DMEM. The medium is changed every 2 days.
The procedure used is the same as for Example 1, except that the somatostatin is replaced with one of its agonist analogues, namely the synthetic peptide of formula c[Tic-Tyr-DTrp-Lys-Abu-Phe] (hereafter AG1 peptide).
The procedure used is the same as for Example 1, except that the somatostatin is replaced by one of its antagonist analogues, namely the synthetic peptide of formula Cpa-c(DCys-3-Pal-DTrp-NMeLys-Thr-Cys)-2-Nal-NH2 (hereafter ANT1 peptide).
(§1) FIG. 1 represents the proportions of dormant follicles during a period of 10 days of culture of an ovarian cortex of a ewe in the presence or absence (control) of somatostatin (SST14). These proportions are measured for each sample tested on the day of the start of the experiment (D0), on the 4th day (D4), on the 7th day (D7) and on the 10th day (D10).
as §1, with “FIG. 2” for “FIG. 1”, “of primary” for “of dormant”
FIG. 3 represents the proportions of primordial, intermediate, primary and secondary follicles during a period of 10 days of culture of an ovarian cortex of a ewe in the absence of agonist or somatostatin antagonist analogue. These proportions are measured for each sample tested on the day of the start of the experiment (D0), on the 4th day (D4), on the 7th day (D7) and on the 10th day (D10).
(§2) FIG. 4 represents the proportions of primordial, intermediate, primary and secondary follicles during a period of 10 days of culture of an ovarian cortex of a ewe in the presence or absence of a somatostatin agonist analogue, the synthetic peptide of formula c[Tic-Tyr-DTrp-Lys-Abu-Phe] (AG1 peptide). These proportions are measured for each sample tested on the day of the start of the experiment (D0), on the 4th day (D4), on the 7th day (D7) and on the 10th day (D10).
as §2, with “FIG. 5” for “FIG. 4”, “somatostatin antagonist” for “somatostatin agonist”, “formula Cpa-c(DCys-3-Pal-DTrp-NMeLys-Thr-Cys)-2-Nal-NH2 (ANT1” for “formula c[Tic-Tyr-DTrp-Lys-Abu-Phe] (AG1”

[2] = AG1 peptide at 10^-9 M, D0-D10, FIG. 4

## CC(C)[C@@H]1NC(=O)[C@H](CCCCN)NC(=O)[C@@H](Cc2c[nH]c3ccccc23)NC(=O)[C@H](Cc2ccc(O)cc2)NC(=O)[C@@H](NC(=O)[C@H](N)Cc2ccc3ccccc3c2)CSSC[C@@H](C(=O)N[C@H](C(N)=O)[C@@H](C)O)NC1=O [lanreotide acetate]
Ovarian follicles
  ovarian volume and number of antral follicles (ultrasound): reduction in ovarian volume and in the number of antral follicles

## CC[C@@H]1NC(=O)[C@H](CCCCN)NC(=O)[C@@H](Cc2c[nH]c3ccccc23)NC(=O)[C@H](Cc2ccc(O)cc2)NC(=O)[C@@H]2Cc3ccccc3CN2C(=O)[C@H](Cc2ccccc2)NC1=O [AG1 peptide, c[Tic-Tyr-DTrp-Lys-Abu-Phe]] (cyclo([Tic]Y[dW]K[Abu]F))
[1]; [2]
  number of primary follicles: absence of increase in the number of primary follicles
  number of primordial follicles over time: maintenance over time of the number of primordial follicles
[1]; AG1 peptide at 10^-9 M
  start of growth of the primordial follicles: very significantly inhibits the start of growth of the primordial follicles

## C[C@H](N)C(=O)NCC(=O)N[C@H]1CSSC[C@@H](C(=O)O)NC(=O)[C@H](CO)NC(=O)[C@H]([C@@H](C)O)NC(=O)[C@H](Cc2ccccc2)NC(=O)[C@H]([C@@H](C)O)NC(=O)[C@H](CCCCN)NC(=O)[C@H](Cc2c[nH]c3ccccc23)NC(=O)[C@H](Cc2ccccc2)NC(=O)[C@H](Cc2ccccc2)NC(=O)[C@H](CC(N)=O)NC(=O)[C@H](CCCCN)NC1=O [SST14]
[1]; SST14 at 10^-9 M to 10^-6 M, D0-D10, FIG. 1
  number of primordial follicles over time: maintenance over time of the number of primordial follicles
[1]; SST14 at 10^-9 M to 10^-6 M, D0-D10, FIG. 2
  number of primary follicles: absence of increase in the number of primary follicles
[1]; SST14 at 10^-9 M to 10^-6 M
  start of growth of the primordial follicles: very significantly inhibits the start of growth of the primordial follicles
